The values below come from patent US8268848B2, “Cyclopropane compound” (Eisai R&D Management Co., Ltd., priority 2010, dated 2012).

As usually defined, the IC50 is the concentration that inhibits the measured activity by half. The term Ki denotes the dissociation constant of the complex between target and ligand, obtained from inhibition or displacement.

Structures are written as SMILES. Like-named read-outs stand apart in the source and are kept apart here.

Assay [1] deals with mice (C57BL/6NCrlCrLj). Put plainly: Sleep experiment (EEG/EMG) in mice. It counts as in vivo.
For assay [2], the target named is T1, OX1 (Homo sapiens, UniProt O43613).
T1 sequence (O43613 1-425): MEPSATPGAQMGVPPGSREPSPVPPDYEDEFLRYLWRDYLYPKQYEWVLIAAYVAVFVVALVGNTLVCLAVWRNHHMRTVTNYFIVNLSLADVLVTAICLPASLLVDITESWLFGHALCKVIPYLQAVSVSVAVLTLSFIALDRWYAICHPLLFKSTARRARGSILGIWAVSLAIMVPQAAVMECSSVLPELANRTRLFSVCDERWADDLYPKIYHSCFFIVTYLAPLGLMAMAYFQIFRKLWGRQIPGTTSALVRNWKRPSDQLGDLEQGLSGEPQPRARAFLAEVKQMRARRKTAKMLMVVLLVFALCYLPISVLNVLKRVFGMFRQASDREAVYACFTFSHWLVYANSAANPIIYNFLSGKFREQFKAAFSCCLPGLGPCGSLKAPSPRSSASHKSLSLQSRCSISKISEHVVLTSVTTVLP
Kind of assay: Measurement of orexin receptor-binding ability ([125I]-OX-A, cell membranes, OX1). Set-up: expressed in transfected cells; host or cells: CHO cells (membrane preparation).

Assay [3] has as its target T2, OX2 (Homo sapiens, UniProt O43614).
T2 sequence (O43614 1-444): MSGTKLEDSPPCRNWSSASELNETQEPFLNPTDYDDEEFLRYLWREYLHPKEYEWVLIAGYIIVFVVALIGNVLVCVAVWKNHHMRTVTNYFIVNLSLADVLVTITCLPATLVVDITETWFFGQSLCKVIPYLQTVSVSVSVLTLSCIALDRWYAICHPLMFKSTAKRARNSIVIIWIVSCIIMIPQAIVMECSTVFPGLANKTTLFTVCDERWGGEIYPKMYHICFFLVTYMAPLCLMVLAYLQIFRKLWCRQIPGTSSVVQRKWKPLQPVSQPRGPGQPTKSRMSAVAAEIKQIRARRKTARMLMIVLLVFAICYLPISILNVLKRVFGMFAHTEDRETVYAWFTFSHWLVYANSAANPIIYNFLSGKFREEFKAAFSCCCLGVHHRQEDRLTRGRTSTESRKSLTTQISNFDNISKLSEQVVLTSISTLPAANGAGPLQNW
Kind of assay: Measurement of orexin receptor-binding ability ([125I]-OX-A, cell membranes, OX2). Set-up: expressed in transfected cells; host or cells: CHO cells (membrane preparation). The settings on record: membranes of recombinant CHO cells expressing OX2, 0.2 nM [125I]-OX-A.

The target of assay [4] is T1, OX1. Kind of assay: Measurement of antagonism (PLAP assay), OX1. Format: cell-based. More on the design: expressed in transfected cells; host or cells: HEK-293 cells, expression vector pBabeCLIH. As for the experimental part: (§1) 2. Measurement of Antagonism (PLAP Assay)
(§2) The antagonistic function of the compound of the present invention to prevent the activation of OX2 and OX1 by orexin-A (OX-A), which is a natural peptide agonist, was measured using a cell-based reporter assay. […] The cells were plated at a density of 10,000 cells/well onto a non-coated 96-well plate in Dulbecco's modified Eagle medium (Sigma Cat No. D6046:10% v/v heat-inactivated fetal bovine serum was contained). The cells were cultured at 37° C. overnight, so that they could adhere to the plate. On the following day, cells were incubated with a compound of the present invention dissolved in Dulbecco's modified Eagle medium (Sigma Cat No. A8806:0.1% w/v bovine serum albumin was contained), and added to the cell plate to reach a final concentration of 0.1% dimethyl sulfoxide.
(§3) The thus obtained mixture was incubated at room temperature for 1 hour. Thereafter, human OX-A and forskolin were dissolved in the same medium as described above, which contained fetal bovine serum albumin, and the medium was then added to the cells, resulting in a final concentration of 300 nM forskolin. Subsequently, the cells were cultured at 37° C. for approximately 18 to 24 hours.

For assay [5], the target named is T2, OX2. Kind of assay: Measurement of antagonism (PLAP assay), OX2. Set-up: expressed in transfected cells; host or cells: HEK-293 cells, expression vector pBabeCLIH. Format: cell-based. How it is done:
as §1, §2, §3

Assay [6] has as its system rats. The settings on record: cited from earlier work.
Assay [7] relates to normal humans. The settings on record: cited from earlier work.
Assay [8] deals with patients with insomnia. To be noted: cited from earlier work.
Setting [9] is: HEK-293 cells expressing human OX1, 1 nM human OX-A, IC50 converted by Cheng-Prusoff equation, read-out: OX1 (Ki).
[10] abbreviates: HEK-293 cells expressing human OX2, 1 nM human OX-A, IC50 converted by Cheng-Prusoff equation, read-out: OX2 (Ki).
[11] abbreviates: mice, oral administration, difference to vehicle day, 3 hours.

As for `Cc1ncc(OC[C@@]2(c3ccc(F)c(F)c3)C[C@H]2C(=O)Nc2cc(C)c(F)cn2)c(C)n1` [Example 164, (1R,2S)-2-(3,4-difluorophenyl)-2-{[(2,4-dimethylpyrimidin-5-yl)oxy]methyl}-N-(5-fluoro-4-methylpyridin-2-yl)cyclopropanecarboxamide], in assay [1] (po, 3 h), the “Sleep extended time 10 mg/kg (min/3 hrs)” value is recorded as 48.4 min/3 hrs. Also, the IC50 came to 3 nM in assay [2] (membranes of recombinant CHO cells expressing OX1, 0.2 nM [125I]-OX-A, read-out: OX1 (IC50)) and 6 nM in assay [3] (read-out: OX2 (IC50)). Besides, the results for the Ki in assay [4] (setting [9]) and in assay [5] (setting [10]) were 0.93 nM and 0.087 nM, respectively.
Consider `COc1cccc([C@]2(COc3cnc(C)nc3C)C[C@H]2C(=O)Nc2ccc(F)cn2)c1` [Example 186, (1R,2S)-2-{[(2,4-dimethylpyrimidin-5-yl)oxy]methyl}-N-(5-fluoropyridin-2-yl)-2-(3-methoxyphenyl)cyclopropanecarboxamide], for which the “Sleep extended time 10 mg/kg (min/3 hrs)” value in assay [1] (setting [11]) is given as 14.7 min/3 hrs. Besides, the IC50 in assay [2] is 22 nM; in assay [3] (OX2 (IC50) nM), 7 nM. In addition, the inhibition constant (Ki) in assay [4] (setting [9]) turned out to be 87 nM; in assay [5] (setting [10]), 3.4 nM.
For the compound `CCc1nc(C)ncc1OC[C@@]1(c2cccc(F)c2)C[C@H]1C(=O)Nc1ccccn1` [Example 240, (1R,2S)-2-{[(4-ethyl-2-methylpyrimidin-5-yl)oxy]methyl}-2-(3-fluorophenyl)-N-(pyridin-2-yl)cyclopropanecarboxamide], the “Sleep extended time 10 mg/kg (min/3 hrs)” value in assay [1] (setting [11]) was determined as 7.7 min/3 hrs. Besides, the “minimum effective dose (MED)” value in assay [1] (mice, oral, doses 0.3 to 100 mg/kg, accumulated sleep time within three hours after administration) was 10 mg/kg. The concentration for half-maximal inhibition (IC50) in assay [2] amounted to 8.7 nM; in assay [3] (OX2 (IC50) nM), 2.9 nM. Further, the inhibitory constant (Ki) came out at 18 nM in assay [4] and 0.91 nM in assay [5].
As to `Cc1ncc(OC[C@@]2(c3ccccc3F)C[C@H]2C(=O)Nc2ccc(F)cn2)c(C)n1` [Example 263], in assay [1] (setting [11]), the “Sleep extended time 10 mg/kg (min/3 hrs)” value came to 27.3 min/3 hrs. Further, the IC50 was determined as 82 nM in assay [2] and 17 nM in assay [3] (OX2 (IC50) nM). Moreover, the Ki was 193 nM in assay [4] and 8.6 nM in assay [5].
As for `CNC(=O)[C@@H](c1ccccc1)N1CCc2cc(OC)c(OC)cc2[C@@H]1CCc1ccc(C(F)(F)F)cc1` [almorexant, (2R)-2-{(1S)-6,7-dimethoxy-1-[2-(4-trifluoromethyl-phenyl)ethyl]-3,4-dihydro-1H-isoquinolin-2-yl}-N-methyl-2-phenylacetamide], in assay [6], the “REM sleep time and non-REM sleep time” value was “dose-dependently increases both rapid eye movement (REM) sleep time and non-REM sleep time”; the wakefulness entry was “causes a decrease in wakefulness in rats”. The “sleep latency, sleep efficacy, total sleep time” value in assay [7] is “exhibits dose-dependently a reduction of sleep latency, sleep efficacy and extension of total sleep time”. Further, in assay [8], the “sleep efficacy, sleep latency, REM sleep” value was “exhibits improvement of sleep efficacy, shortness of sleep latency, increase of REM sleep and improvement of REM sleep ratio”.
